pIC50: −log10 of the molar value. Converted amounts (≈) assume the structure as drawn. Like-named read-outs stand apart in the source and are kept apart here.
Tests used:
human (hACC2) = human (hACC2) (Homo sapiens, UniProt O00763); test: In vitro ACC inhibition assay (ADP-Glo), hACC2; assay type: biochemical; details: 5 nM ACC2, 20 μM ATP, 20 μM acetyl-CoA
Description: The detailed procedure is as follows. […] 10 μL ADP glo reagent was added. […] 20 μL kinase detection reagent was added.

C. krusei = test: Antifungal Activity Assay (broth microtiter MIC), C. krusei; assay type: cell-based, Candida krusei; details: Pichia kudriavzevii, ATCC6258, 48 h, ATCC 6258, 3 replicates, MIC recorded at 48 h, read-out: MIC, C. krusei ATCC 6258
Description: (§1) Compounds of the present invention were evaluated in an Antifungal Activity Assay. An exemplary procedure for the assay, which measures the susceptibility of various Candida species to antifungal compounds, follows. Compounds to be tested (including fluconazole and amphotericin B) were dissolved in DMSO to obtain a solution having a concentration of 1 mg/mL. These stock solutions were sterile filtered using a 0.22 um nylon syringe filter, then diluted in sterile water to achieve a final concentration of 128 μg/mL.
(§2) All species were grown from frozen stock by directly plating on to freshly prepared Sabouraud Dextrose agar (BD, Difco) and incubated overnight in ambient air at 35° C. for 24 h. A direct suspension was prepared in RPMI 1640+MOPS (Lonza, Biowhittaker) by taking individual colonies from the overnight cultures using sterile swabs soaked in sterile saline. The concentration of the suspension was determined using pre-determined standard curves. These suspensions were then diluted down to 5×10^3 CFU/mL to achieve a final concentration of 2.5×10^3 CFU/mL once added to the microtiter plate as per CLSI guidelines (M27-A3, Vol. 28 No. 14).
(§3) Broth microtiter MIC challenge plates were prepared following CLSI guidelines (M27-A3, Vol. 28 No. 14). The original CLSI guidelines focused on reading Candida MICs after 48 h of incubation. As reading after only 24 h offers a clear advantage of patient care, QC limits are being established for all drugs at 24 h. That being said there are no known interpretive breakpoints for amphotericin B at 24 h and the current fluconazole interpretive breakpoints are based on a 48 h reading. The MICs for the test compounds were recorded at 48 h. All MIC determinations were achieved by visually comparing the growth found in the antibiotic challenged wells to that of the growth control.

C. albicans = test: Antifungal Activity Assay (broth microtiter MIC), C. albicans; assay type: cell-based, Candida albicans; details: Candida albicans, ATCC90028, 48 h, ATCC 90028, 3 replicates, MIC recorded at 48 h, read-out: MIC, C. albicans ATCC 90028
Description: as §1, §2, §3

fungal (fACC2) = fungal (fACC2) (UniProt Q00955); details: read-out: fACC2 (in vitro ACC2 Inhibition Assay, IC50), ADP-Glo, 5 nM ACC2, 20 μM ATP, 20 μM acetyl-CoA
C. parapsilosis = test: Antifungal Activity Assay (broth microtiter MIC), C. parapsilosis; assay type: cell-based, Candida parapsilosis; details: Lodderomyces parapsilosis, ATCC22019, 48 h, ATCC 22019, 3 replicates, MIC recorded at 48 h, read-out: MIC, C. parapsilosis ATCC 22019
Description: as §1, §2, §3

Sequence of human (hACC2) (O00763 whole entry): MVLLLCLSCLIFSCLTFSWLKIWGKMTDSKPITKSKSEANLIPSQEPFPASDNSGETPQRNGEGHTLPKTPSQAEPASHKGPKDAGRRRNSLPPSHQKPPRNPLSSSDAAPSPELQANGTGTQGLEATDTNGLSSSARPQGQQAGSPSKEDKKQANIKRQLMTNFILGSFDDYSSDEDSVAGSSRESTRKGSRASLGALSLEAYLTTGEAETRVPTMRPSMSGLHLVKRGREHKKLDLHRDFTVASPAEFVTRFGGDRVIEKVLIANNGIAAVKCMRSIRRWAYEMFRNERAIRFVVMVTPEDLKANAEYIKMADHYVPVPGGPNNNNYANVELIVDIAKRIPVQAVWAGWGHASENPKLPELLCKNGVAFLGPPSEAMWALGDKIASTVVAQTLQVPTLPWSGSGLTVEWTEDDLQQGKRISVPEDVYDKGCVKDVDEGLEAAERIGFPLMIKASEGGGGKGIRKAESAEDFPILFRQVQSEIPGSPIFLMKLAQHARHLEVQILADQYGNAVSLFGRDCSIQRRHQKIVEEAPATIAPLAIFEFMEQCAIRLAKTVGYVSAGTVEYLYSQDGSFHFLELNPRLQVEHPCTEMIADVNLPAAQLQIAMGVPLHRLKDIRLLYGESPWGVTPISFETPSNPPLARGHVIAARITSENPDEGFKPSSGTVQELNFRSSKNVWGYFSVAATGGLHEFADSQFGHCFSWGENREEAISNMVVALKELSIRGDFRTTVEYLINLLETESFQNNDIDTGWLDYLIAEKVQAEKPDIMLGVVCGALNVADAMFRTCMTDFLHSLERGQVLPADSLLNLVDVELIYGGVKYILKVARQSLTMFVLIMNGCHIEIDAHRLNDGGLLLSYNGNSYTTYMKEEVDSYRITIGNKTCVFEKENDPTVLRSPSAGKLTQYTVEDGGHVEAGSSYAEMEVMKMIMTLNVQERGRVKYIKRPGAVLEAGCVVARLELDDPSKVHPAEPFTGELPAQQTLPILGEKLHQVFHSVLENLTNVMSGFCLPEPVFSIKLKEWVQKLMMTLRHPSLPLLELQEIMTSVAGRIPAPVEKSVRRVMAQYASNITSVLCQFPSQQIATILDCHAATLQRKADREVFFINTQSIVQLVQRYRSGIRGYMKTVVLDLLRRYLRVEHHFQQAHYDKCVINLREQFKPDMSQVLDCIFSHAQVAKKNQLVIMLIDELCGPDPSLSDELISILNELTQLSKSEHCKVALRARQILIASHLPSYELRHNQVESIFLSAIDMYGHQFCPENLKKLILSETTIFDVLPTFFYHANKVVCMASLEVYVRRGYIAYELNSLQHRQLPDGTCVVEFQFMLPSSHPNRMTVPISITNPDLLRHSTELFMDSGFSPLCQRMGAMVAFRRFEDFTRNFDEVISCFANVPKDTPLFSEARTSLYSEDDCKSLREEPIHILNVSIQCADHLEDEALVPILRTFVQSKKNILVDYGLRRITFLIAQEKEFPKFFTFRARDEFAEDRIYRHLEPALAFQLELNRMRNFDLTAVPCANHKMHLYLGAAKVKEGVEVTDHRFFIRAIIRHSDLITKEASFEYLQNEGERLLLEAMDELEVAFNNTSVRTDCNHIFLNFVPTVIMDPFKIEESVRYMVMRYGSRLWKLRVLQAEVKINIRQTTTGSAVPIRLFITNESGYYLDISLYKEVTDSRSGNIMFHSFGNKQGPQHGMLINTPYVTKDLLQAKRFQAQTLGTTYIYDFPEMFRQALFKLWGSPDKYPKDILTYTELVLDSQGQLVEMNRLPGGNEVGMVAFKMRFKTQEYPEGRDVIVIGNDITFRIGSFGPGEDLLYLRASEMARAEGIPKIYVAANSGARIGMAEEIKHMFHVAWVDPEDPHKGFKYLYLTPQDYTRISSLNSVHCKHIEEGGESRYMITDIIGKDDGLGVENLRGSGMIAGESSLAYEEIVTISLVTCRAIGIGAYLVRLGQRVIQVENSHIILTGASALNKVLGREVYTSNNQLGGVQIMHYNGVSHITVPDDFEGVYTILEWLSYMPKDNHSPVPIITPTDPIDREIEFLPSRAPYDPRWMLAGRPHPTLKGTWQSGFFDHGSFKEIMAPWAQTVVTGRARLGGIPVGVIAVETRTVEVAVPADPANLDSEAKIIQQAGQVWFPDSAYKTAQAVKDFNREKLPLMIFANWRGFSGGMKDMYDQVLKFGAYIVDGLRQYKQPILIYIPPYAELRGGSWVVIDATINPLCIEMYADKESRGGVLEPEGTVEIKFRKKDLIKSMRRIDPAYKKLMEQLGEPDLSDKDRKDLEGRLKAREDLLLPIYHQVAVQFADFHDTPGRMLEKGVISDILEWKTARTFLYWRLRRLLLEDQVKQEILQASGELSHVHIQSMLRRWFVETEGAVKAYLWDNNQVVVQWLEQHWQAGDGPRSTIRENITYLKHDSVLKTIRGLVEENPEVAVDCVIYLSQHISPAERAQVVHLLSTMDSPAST
Sequence of fungal (fACC2) (Q00955 whole entry): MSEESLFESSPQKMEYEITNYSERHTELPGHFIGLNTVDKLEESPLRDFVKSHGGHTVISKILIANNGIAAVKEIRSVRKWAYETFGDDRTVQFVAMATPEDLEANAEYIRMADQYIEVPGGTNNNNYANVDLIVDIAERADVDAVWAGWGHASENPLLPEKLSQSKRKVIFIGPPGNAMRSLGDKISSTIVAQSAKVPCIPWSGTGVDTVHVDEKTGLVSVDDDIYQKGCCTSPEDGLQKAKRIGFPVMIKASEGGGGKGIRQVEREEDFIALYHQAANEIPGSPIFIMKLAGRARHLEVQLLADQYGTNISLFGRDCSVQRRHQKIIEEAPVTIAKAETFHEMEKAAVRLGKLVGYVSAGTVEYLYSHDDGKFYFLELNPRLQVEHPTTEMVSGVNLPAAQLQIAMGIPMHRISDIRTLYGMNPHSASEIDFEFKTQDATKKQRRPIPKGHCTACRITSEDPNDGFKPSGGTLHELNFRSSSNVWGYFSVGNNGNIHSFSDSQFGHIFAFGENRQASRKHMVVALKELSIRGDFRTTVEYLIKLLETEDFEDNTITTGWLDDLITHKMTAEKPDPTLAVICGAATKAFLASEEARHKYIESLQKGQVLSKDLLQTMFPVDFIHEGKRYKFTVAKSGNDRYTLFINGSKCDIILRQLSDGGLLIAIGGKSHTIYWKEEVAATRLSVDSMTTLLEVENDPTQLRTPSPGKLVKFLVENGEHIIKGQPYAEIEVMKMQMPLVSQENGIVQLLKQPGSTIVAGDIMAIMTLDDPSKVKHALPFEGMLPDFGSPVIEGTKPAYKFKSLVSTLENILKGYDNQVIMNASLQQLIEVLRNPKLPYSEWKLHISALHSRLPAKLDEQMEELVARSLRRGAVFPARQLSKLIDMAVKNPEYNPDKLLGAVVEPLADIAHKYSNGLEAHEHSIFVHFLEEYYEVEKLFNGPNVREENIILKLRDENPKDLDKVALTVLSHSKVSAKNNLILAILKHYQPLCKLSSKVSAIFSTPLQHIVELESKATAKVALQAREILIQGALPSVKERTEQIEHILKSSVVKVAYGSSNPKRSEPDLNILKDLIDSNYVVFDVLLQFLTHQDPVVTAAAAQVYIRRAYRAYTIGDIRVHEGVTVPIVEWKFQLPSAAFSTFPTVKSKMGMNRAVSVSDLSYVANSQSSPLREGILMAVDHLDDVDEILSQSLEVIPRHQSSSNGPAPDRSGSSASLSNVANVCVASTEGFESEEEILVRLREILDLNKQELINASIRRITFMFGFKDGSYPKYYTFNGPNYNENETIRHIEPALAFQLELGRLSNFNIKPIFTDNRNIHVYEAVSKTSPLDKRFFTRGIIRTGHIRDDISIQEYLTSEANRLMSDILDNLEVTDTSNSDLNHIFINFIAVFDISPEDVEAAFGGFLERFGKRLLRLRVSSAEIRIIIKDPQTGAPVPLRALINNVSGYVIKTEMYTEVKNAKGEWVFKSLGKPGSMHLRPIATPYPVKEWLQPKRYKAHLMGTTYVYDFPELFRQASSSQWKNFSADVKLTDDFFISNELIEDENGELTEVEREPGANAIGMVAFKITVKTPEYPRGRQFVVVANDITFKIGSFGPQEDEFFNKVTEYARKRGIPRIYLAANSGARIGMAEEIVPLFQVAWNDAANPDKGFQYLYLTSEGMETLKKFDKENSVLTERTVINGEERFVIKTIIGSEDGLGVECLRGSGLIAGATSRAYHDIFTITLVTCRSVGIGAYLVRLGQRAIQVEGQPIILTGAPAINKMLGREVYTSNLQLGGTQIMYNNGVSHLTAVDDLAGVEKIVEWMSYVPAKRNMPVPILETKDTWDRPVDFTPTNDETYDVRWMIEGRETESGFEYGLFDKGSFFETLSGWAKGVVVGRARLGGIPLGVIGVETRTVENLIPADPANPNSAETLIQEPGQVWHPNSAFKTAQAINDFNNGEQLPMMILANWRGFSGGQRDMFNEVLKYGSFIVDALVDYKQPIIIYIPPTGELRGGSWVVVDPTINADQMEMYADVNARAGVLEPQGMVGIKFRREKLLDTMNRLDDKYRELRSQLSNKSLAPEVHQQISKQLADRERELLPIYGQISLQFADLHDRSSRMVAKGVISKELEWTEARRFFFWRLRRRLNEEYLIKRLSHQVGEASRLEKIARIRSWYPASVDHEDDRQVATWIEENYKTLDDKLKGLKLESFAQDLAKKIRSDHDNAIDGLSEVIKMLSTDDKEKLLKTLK

Structure (SMILES): Cc1c(-n2nccn2)sc2c1c(=O)n(C(C)(C)C(=O)NC(C)C)c(=O)n2C[C@H](OC1CCOCC1)c1cc(F)ccc1OCCO [Compound I-111]
- pIC50 (human (hACC2); Table 2a): 8.30 to 9.00
- pIC50 (human (hACC2); Table 2b, additional results): 8.30 to 9.00
- MIC (C. krusei; Table 3a): 0.25 to 1 µg/mL (≈ 0.38 to 1.52 µM)
- MIC (C. krusei; Table 3b (additional results)): 0.06 to 0.249 µg/mL (≈ 0.0911 to 0.378 µM)
- MIC (C. albicans; Table 3a): 0.25 to 1 µg/mL (≈ 0.38 to 1.52 µM)
- MIC (C. albicans; Table 3b (additional results)): 0.06 to 0.249 µg/mL (≈ 0.0911 to 0.378 µM)
- pIC50 (fungal (fACC2); Table 2a): 9.00 to 9.40
- pIC50 (fungal (fACC2); Table 2b, additional results): 9.00 to 9.52
- MIC (C. parapsilosis; Table 3a): 0.25 to 1 µg/mL (≈ 0.38 to 1.52 µM)
- MIC (C. parapsilosis; Table 3b (additional results)): 0.25 to 1 µg/mL (≈ 0.38 to 1.52 µM)

Structure (SMILES): Cc1c(-n2nccn2)sc2c1c(=O)n(C(C)(C)C(=O)N1CCCC1)c(=O)n2C[C@H](OC1CCOCC1)c1cc(F)ccc1OCCO [Compound I-112]
- pIC50 (human (hACC2); Table 2a): 8.30 to 9.00
- pIC50 (human (hACC2); Table 2b, additional results): 8.30 to 9.00
- MIC (C. krusei; Table 3a): 0.25 to 1 µg/mL (≈ 0.373 to 1.49 µM)
- MIC (C. krusei; Table 3b (additional results)): 0.25 to 1 µg/mL (≈ 0.373 to 1.49 µM)
- MIC (C. albicans; Table 3a): 0.25 to 1 µg/mL (≈ 0.373 to 1.49 µM)
- MIC (C. albicans; Table 3b (additional results)): 0.25 to 1 µg/mL (≈ 0.373 to 1.49 µM)
- pIC50 (fungal (fACC2); Table 2a): 9.00 to 9.40
- pIC50 (fungal (fACC2); Table 2b, additional results): 9.00 to 9.52
- MIC (C. parapsilosis; Table 3a): 0.25 to 1 µg/mL (≈ 0.373 to 1.49 µM)
- MIC (C. parapsilosis; Table 3b (additional results)): 1.01 to 2 µg/mL (≈ 1.51 to 2.98 µM)

Structure (SMILES): COc1ccc(F)cc1[C@H](Cn1c(=O)n(C(C)(C)C(=O)N2CCCC2)c(=O)c2c(C)c(-n3nccn3)sc21)OCC(O)C(F)(F)F (stereo partly drawn) [Compound I-113]
- pIC50 (human (hACC2); Table 2a): 8.30 to 9.00
- pIC50 (human (hACC2); Table 2b, additional results): 8.30 to 9.00
- MIC (C. krusei; Table 3a): 0.25 to 1 µg/mL (≈ 0.374 to 1.5 µM)
- MIC (C. krusei; Table 3b (additional results)): 2.01 to 4 µg/mL (≈ 3.01 to 5.98 µM)
- MIC (C. albicans; Table 3a): 0.25 to 1 µg/mL (≈ 0.374 to 1.5 µM)
- MIC (C. albicans; Table 3b (additional results)): > 4.01 µg/mL
- pIC50 (fungal (fACC2); Table 2a): 8.30 to 9.00
- pIC50 (fungal (fACC2); Table 2b, additional results): 8.30 to 9.00
- MIC (C. parapsilosis; Table 3a): 1.1 to 2 µg/mL (≈ 1.65 to 2.99 µM)
- MIC (C. parapsilosis; Table 3b (additional results)): 1.01 to 2 µg/mL (≈ 1.51 to 2.99 µM)

Structure (SMILES): C=CCN(C)C(=O)C(C)(C)n1c(=O)c2c(C)c(-n3nccn3)sc2n(C[C@H](OC(C)C)c2cc(F)ccc2OC)c1=O [Compound I-115]
- pIC50 (human (hACC2); Table 2a): 8.00 to 8.30
- pIC50 (human (hACC2); Table 2b, additional results): 8.00 to 8.30
- MIC (C. krusei; Table 3a): 1.1 to 2 µg/mL (≈ 1.84 to 3.34 µM)
- MIC (C. krusei; Table 3b (additional results)): 1.01 to 2 µg/mL (≈ 1.69 to 3.34 µM)
- MIC (C. albicans; Table 3a): 2.1 to 4 µg/mL (≈ 3.51 to 6.68 µM)
- MIC (C. albicans; Table 3b (additional results)): 1.01 to 2 µg/mL (≈ 1.69 to 3.34 µM)
- pIC50 (fungal (fACC2); Table 2a): 8.30 to 9.00
- pIC50 (fungal (fACC2); Table 2b, additional results): 8.30 to 9.00
- MIC (C. parapsilosis; Table 3a): 1.1 to 2 µg/mL (≈ 1.84 to 3.34 µM)
- MIC (C. parapsilosis; Table 3b (additional results)): > 4.01 µg/mL

Structure (SMILES): Cc1c(-n2nccn2)sc2c1c(=O)n(C(C)(C)C(=O)NC(C)C)c(=O)n2C[C@H](OC1CCOCC1)c1cc(F)ccc1OCC#N [Compound I-116]
- pIC50 (human (hACC2); Table 2a): 8.00 to 8.30
- pIC50 (human (hACC2); Table 2b, additional results): 8.00 to 8.30
- MIC (C. krusei; Table 3a): 0.25 to 1 µg/mL (≈ 0.382 to 1.53 µM)
- MIC (C. krusei; Table 3b (additional results)): 0.25 to 1 µg/mL (≈ 0.382 to 1.53 µM)
- MIC (C. albicans; Table 3a): 0.25 to 1 µg/mL (≈ 0.382 to 1.53 µM)
- MIC (C. albicans; Table 3b (additional results)): 0.25 to 1 µg/mL (≈ 0.382 to 1.53 µM)
- pIC50 (fungal (fACC2); Table 2a): 9.00 to 9.40
- pIC50 (fungal (fACC2); Table 2b, additional results): 9.00 to 9.52
- MIC (C. parapsilosis; Table 3a): 0.25 to 1 µg/mL (≈ 0.382 to 1.53 µM)
- MIC (C. parapsilosis; Table 3b (additional results)): 0.25 to 1 µg/mL (≈ 0.382 to 1.53 µM)

Structure (SMILES): COc1ccc(F)cc1[C@H](Cn1c(=O)n(C(C)(C)C(=O)N2CC=CC2)c(=O)c2c(C)c(-n3nccn3)sc21)OC[C@H](C)O [Compound I-117]
- pIC50 (human (hACC2); Table 2a): 8.00 to 8.30
- pIC50 (human (hACC2); Table 2b, additional results): 8.00 to 8.30
- MIC (C. krusei; Table 3a): 0.25 to 1 µg/mL (≈ 0.408 to 1.63 µM)
- MIC (C. krusei; Table 3b (additional results)): > 4.01 µg/mL
- MIC (C. albicans; Table 3a): 2.1 to 4 µg/mL (≈ 3.43 to 6.53 µM)
- MIC (C. albicans; Table 3b (additional results)): 1.01 to 2 µg/mL (≈ 1.65 to 3.26 µM)
- pIC50 (fungal (fACC2); Table 2a): 9.00 to 9.40
- pIC50 (fungal (fACC2); Table 2b, additional results): 9.00 to 9.52
- MIC (C. parapsilosis; Table 3a): 2.1 to 4 µg/mL (≈ 3.43 to 6.53 µM)
- MIC (C. parapsilosis; Table 3b (additional results)): 2.01 to 4 µg/mL (≈ 3.28 to 6.53 µM)

Structure (SMILES): COc1ccc(F)cc1[C@H](Cn1c(=O)n(C(C)(C)C(=O)N2CCCC2)c(=O)c2c(C)c(-n3nccn3)sc21)OCCCO [Compound I-118]
- pIC50 (human (hACC2); Table 2a): 8.30 to 9.00
- pIC50 (human (hACC2); Table 2b, additional results): 8.30 to 9.00
- MIC (C. krusei; Table 3a): 0.25 to 1 µg/mL (≈ 0.407 to 1.63 µM)
- MIC (C. krusei; Table 3b (additional results)): 1.01 to 2 µg/mL (≈ 1.64 to 3.25 µM)
- MIC (C. albicans; Table 3a): 1.1 to 2 µg/mL (≈ 1.79 to 3.25 µM)
- MIC (C. albicans; Table 3b (additional results)): 1.01 to 2 µg/mL (≈ 1.64 to 3.25 µM)
- pIC50 (fungal (fACC2); Table 2a): 9.00 to 9.40
- pIC50 (fungal (fACC2); Table 2b, additional results): 9.00 to 9.52
- MIC (C. parapsilosis; Table 3a): 2.1 to 4 µg/mL (≈ 3.42 to 6.51 µM)
- MIC (C. parapsilosis; Table 3b (additional results)): 1.01 to 2 µg/mL (≈ 1.64 to 3.25 µM)

Structure (SMILES): COc1ccc(F)cc1[C@H](Cn1c(=O)n(C(C)(C)C(=O)NC(C)C)c(=O)c2c(C)c(-n3nccn3)sc21)OCCCO [Compound I-119]
- pIC50 (human (hACC2); Table 2a): 8.30 to 9.00
- pIC50 (human (hACC2); Table 2b, additional results): 8.30 to 9.00
- MIC (C. krusei; Table 3a): 0.06 to 0.24 µg/mL (≈ 0.0996 to 0.398 µM)
- MIC (C. krusei; Table 3b (additional results)): 0.25 to 1 µg/mL (≈ 0.415 to 1.66 µM)
- MIC (C. albicans; Table 3a): 0.25 to 1 µg/mL (≈ 0.415 to 1.66 µM)
- MIC (C. albicans; Table 3b (additional results)): 0.25 to 1 µg/mL (≈ 0.415 to 1.66 µM)
- pIC50 (fungal (fACC2); Table 2a): 9.00 to 9.40
- pIC50 (fungal (fACC2); Table 2b, additional results): 9.00 to 9.52
- MIC (C. parapsilosis; Table 3a): 0.25 to 1 µg/mL (≈ 0.415 to 1.66 µM)
- MIC (C. parapsilosis; Table 3b (additional results)): 0.25 to 1 µg/mL (≈ 0.415 to 1.66 µM)

Structure (SMILES): C=CCNC(=O)C(C)(C)n1c(=O)c2c(C)c(-n3nccn3)sc2n(C[C@H](OC(C)C)c2cc(F)ccc2OC)c1=O [Compound I-120]
- pIC50 (human (hACC2); Table 2a): 8.00 to 8.30
- pIC50 (human (hACC2); Table 2b, additional results): 8.00 to 8.30
- MIC (C. krusei; Table 3a): 0.25 to 1 µg/mL (≈ 0.428 to 1.71 µM)
- MIC (C. krusei; Table 3b (additional results)): 0.25 to 1 µg/mL (≈ 0.428 to 1.71 µM)
- MIC (C. albicans; Table 3a): 0.25 to 1 µg/mL (≈ 0.428 to 1.71 µM)
- MIC (C. albicans; Table 3b (additional results)): 1.01 to 2 µg/mL (≈ 1.73 to 3.42 µM)
- pIC50 (fungal (fACC2); Table 2a): 8.30 to 9.00
- pIC50 (fungal (fACC2); Table 2b, additional results): 8.30 to 9.00
- MIC (C. parapsilosis; Table 3a): 0.25 to 1 µg/mL (≈ 0.428 to 1.71 µM)
- MIC (C. parapsilosis; Table 3b (additional results)): 2.01 to 4 µg/mL (≈ 3.44 to 6.84 µM)

— patent publication US10800791B2, “Triazole ACC inhibitors and uses thereof” (Gilead Apollo, LLC, priority 2015, dated 2020)
